ChEMBL document CHEMBL1201862, “PubChem BioAssay data set” (2004)
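Where inhibition never reached the appropriate level, the endpoint shown equals the highest concentration tested. Otherwise, values were interpolated linearly from a five-concentration, 48-hour dose response in 96-well plates. Abbreviation: GI50, concentration required for 50% inhibition of growth.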 Active and inactive are the calls of the source. No stated cut-off is given here; in the data, active = GI50 up to about 1.1 µM and inactive = higher.

What was measured:
Assay in all cases: NCI anticancer screen, dose series, 48 h
NCI-H23 = tested on: NCI-H23
OVCAR-4 = tested on: OVCAR-4
HCC 2998 = tested on: HCC 2998
HOP-92 = tested on: HOP-92
UACC-62 = tested on: UACC-62
OVCAR-8 = tested on: OVCAR-8
COLO 205 = tested on: COLO 205
LOX IMVI = tested on: LOX IMVI
Malme-3M = tested on: Malme-3M
OVCAR-3 = tested on: OVCAR-3
U-251 = tested on: U-251
RPMI-8226 = tested on: RPMI-8226
EKVX = tested on: EKVX
SK-OV-3 = tested on: SK-OV-3
DMS-114 = tested on: DMS-114
786-0 = tested on: 786-0
K562 = tested on: K562
SW-620 = tested on: SW-620
KM-20L2 = tested on: KM-20L2
KM12 = tested on: KM12
M14 = tested on: M14
SK-MEL-28 = tested on: SK-MEL-28
HL-60 = tested on: HL-60
UACC-257 = tested on: UACC-257
HT-29 = tested on: HT-29
A549 = tested on: A549
UO-31 = tested on: UO-31
TK-10 = tested on: TK-10
CCRF-CEM = tested on: CCRF-CEM
ACHN = tested on: ACHN
NCI-H460 = tested on: NCI-H460
SN12C = tested on: SN12C
SF-295 = tested on: SF-295
HCT-116 = tested on: HCT-116
SF-268 = tested on: SF-268
SNB-75 = tested on: SNB-75
CAKI-1 = tested on: CAKI-1
SK-MEL-5 = tested on: SK-MEL-5
M19-MEL = tested on: M19-MEL
RXF 393 = tested on: RXF 393
SNB-19 = tested on: SNB-19
HOP-62 = tested on: HOP-62
A498 = tested on: A498
MOLT-4 = tested on: MOLT-4
IGROV-1 = tested on: IGROV-1
SF-539 = tested on: SF-539
DMS-273 = tested on: DMS-273
SK-MEL-2 = tested on: SK-MEL-2
LXFL 529 = tested on: LXFL 529
HCT-15 = tested on: HCT-15
SR = tested on: SR
NCI-H522 = tested on: NCI-H522

Measured: GI50

CCCCCCCCCC(=O)OCC1OC(n2cc(F)c(=O)[nH]c2=O)C(NC(=O)OCc2ccccc2)C(OC(=O)CCCCCCCCC)C1O (configuration not stated)
inactive: NCI-H23 25.5 µM | OVCAR-4 16.6 µM | HCC 2998 41.2 µM | HOP-92 18.2 µM | UACC-62 44.2 µM | OVCAR-8 24.3 µM | COLO 205 32.8 µM | LOX IMVI 16.6 µM | Malme-3M 24.2 µM | OVCAR-3 21.2 µM | U-251 15 µM | RPMI-8226 21.4 µM | EKVX 31.6 µM | SK-OV-3 > 100 µM | DMS-114 18.8 µM | 786-0 18.9 µM | K562 30.1 µM | SW-620 26.4 µM | KM-20L2 > 10 µM | KM12 31 µM | M14 52.2 µM | SK-MEL-28 42.1 µM | HL-60 24.1 µM | UACC-257 61.8 µM | HT-29 16.9 µM | A549 26.1 µM | UO-31 40.2 µM | TK-10 80.9 µM | CCRF-CEM 21.8 µM | ACHN 58.7 µM | NCI-H460 > 10 µM | SN12C 15.8 µM | SF-295 40 µM | HCT-116 14.9 µM | SF-268 51.4 µM | SNB-75 16.3 µM | CAKI-1 > 100 µM | SK-MEL-5 20.3 µM | M19-MEL 36.8 µM | RXF 393 18.8 µM | SNB-19 33.6 µM | HOP-62 > 100 µM | A498 25.1 µM | MOLT-4 18.7 µM | IGROV-1 > 100 µM | SF-539 40.8 µM | DMS-273 36.8 µM | SK-MEL-2 31 µM | LXFL 529 24.7 µM | SR 17.5 µM | NCI-H522 20.9 µM
35.2 µM: HCT-15
